Data taken from US20230382925A1, “MODULATORS OF CYSTIC FIBROSIS TRANSMEMBRANE CONDUCTANCE REGULATOR” (VERTEX PHARMACEUTICALS INCORPORATED, priority 2020, published 2023).

Target: CFTR (Homo sapiens, UniProt P13569)
Test: standard Ussing Chamber Assay for CFTR potentiator activity
Assay type: cell-based
Experimental: tert-Butyl N-[(6R,12R)-6-benzyloxy-12-methyl-6,15-bis(trifluoromethyl)-13,19-dioxa-3,4,18-triazatricyclo[12.3.1.12,5]nonadeca-1(18),2,4,14,16-pentaen-17-yl]-N-tert-butoxycarbonyl-carbamate (8.6 g, 11.77 mmol) was dissolved in ethanol (172 mL) then the flask was cycled 3 times between vacuum/nitrogen. Treated the mixture with 10% Pd/C (50% water wet, 1.8 g of 5% w/w, 0.8457 mmol) then cycled 3 times between vacuum/nitrogen and 3 times between vacuum/hydrogen and then stirred vigorously under hydrogen (balloon) at room temperature for 18 h. The mixture was cycled 3 times between vacuum/nitrogen, filtered over Celite washing with ethanol and then the filtrate was evaporated to give 7.3 g of tert-butyl N-tert-butoxycarbonyl-N-[(6R,12R)-6-hydroxy-12-methyl-6,15-bis(trifluoromethyl)-13,19-dioxa-3,4,18-triazatricyclo[12.3.1.12,5]nonadeca-1(18),2,4,14,16-pentaen-17-yl]carbamate an off-white solid. 1H NMR and MS confirmed the expected product. CFTR modulatory activity was confirmed using a standard Ussing Chamber Assay for CFTR potentiator activity.

Chain of CFTR (P13569 whole entry, species assumed): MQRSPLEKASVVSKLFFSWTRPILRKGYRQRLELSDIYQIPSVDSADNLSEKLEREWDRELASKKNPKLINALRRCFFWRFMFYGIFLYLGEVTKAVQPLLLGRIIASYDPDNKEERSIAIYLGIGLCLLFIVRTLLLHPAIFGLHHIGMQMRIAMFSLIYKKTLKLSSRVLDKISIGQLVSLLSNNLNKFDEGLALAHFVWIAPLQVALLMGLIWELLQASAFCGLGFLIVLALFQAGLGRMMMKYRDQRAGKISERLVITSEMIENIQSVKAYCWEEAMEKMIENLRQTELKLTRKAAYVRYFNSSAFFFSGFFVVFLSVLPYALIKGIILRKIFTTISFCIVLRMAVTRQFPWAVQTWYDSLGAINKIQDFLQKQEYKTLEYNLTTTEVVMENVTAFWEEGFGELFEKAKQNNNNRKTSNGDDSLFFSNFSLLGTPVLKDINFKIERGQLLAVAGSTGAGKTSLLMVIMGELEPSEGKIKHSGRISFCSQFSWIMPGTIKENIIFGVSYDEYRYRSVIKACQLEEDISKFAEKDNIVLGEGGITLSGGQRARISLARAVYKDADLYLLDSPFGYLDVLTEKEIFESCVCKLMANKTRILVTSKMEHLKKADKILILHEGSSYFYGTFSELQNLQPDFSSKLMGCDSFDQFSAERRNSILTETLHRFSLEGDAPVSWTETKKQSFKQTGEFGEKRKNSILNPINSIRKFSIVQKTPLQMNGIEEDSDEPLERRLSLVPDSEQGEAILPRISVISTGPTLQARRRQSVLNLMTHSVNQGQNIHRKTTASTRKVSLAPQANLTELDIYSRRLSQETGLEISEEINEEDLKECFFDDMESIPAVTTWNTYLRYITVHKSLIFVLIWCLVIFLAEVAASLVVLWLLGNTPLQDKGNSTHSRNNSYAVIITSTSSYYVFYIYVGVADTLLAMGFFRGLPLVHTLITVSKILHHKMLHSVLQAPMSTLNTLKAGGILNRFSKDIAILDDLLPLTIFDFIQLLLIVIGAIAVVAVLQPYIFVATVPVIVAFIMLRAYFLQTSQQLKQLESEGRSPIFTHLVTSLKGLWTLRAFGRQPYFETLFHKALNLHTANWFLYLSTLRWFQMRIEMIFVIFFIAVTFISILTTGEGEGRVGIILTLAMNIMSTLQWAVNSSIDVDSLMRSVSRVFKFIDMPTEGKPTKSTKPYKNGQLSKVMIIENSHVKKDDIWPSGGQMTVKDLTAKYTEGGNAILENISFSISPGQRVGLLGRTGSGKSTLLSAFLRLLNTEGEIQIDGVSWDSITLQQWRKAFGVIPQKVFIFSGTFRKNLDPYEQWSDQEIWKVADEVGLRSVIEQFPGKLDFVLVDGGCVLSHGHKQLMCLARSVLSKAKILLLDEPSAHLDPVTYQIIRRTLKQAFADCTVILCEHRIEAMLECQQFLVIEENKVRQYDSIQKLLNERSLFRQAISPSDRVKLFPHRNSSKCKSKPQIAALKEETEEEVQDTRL

- CFTR modulatory activity (potentiator activity): confirmed
Structure (SMILES): C[C@@H]1CCCCC[C@](O)(C(F)(F)F)C2=NN=C(O2)c2nc(c(C(F)(F)F)cc2N)O1 [(6R,12R)-17-amino-12-methyl-6,15-bis(trifluoromethyl)-13,19-dioxa-3,4,18-triazatricyclo[12.3.1.12,5] nonadeca-1(18),2,4,14,16-pentaen-6-ol]
